Results taken from patent US10266482B2, “Long-term memory inducing agent” (NATIONAL UNIVERSITY CORPORATION TOKYO MEDICAL AND DENTAL …, priority 2017, dated 2019).

Assays:
[1] = Measurement of brain AMK level after intraperitoneal administration; type: in vivo, ICR mice; settings: 1 mg/kg bw intraperitoneal
Protocol: (§1) 8-week-old male ICR mice were purchased. Each of the experiment individuals was raised in an individual cage, and adapted to the raising environment for at least a week before use. The rearing room was kept at 22° C. at cycles of 12 hours of light period/12 hours of dark period, and feed and drinking water were given freely. All of the experiments were conducted during the latter 6 hours of the light period.
(§2) N(1)-acetyl-5-methoxykynuramine (AMK) was used as a drug. AMK was diluted with physiological saline. In the administration experiment, a dosage of 0.001 mg-1 mg/3.65 ml/kg bw was intraperitoneally administered.
1 mg/kg bw of AMK was intraperitoneally administered, and 5, 15, 30, 60, 120 and 240 minutes later, the hippocampus and a region including the perirhinal cortex of the temporal lobe that was assumed to be involved in object recognition memory were collected to measure the AMK levels with a high-performance liquid chromatograph mass spectrometer. As a control group, AMK levels in untreated individuals were also measured

[2] = tested on: aged crickets; assay: Olfactory associative learning test in aged crickets (age-related memory disorder, training four times); type: in vivo, Gryllus bimaculatus; settings: 1 μM, 3 μl
Protocol: Male crickets about one week old (young) or three week old (aged) following molting into adult forms were used. Each of the crickets was placed into a 100 ml beaker three days before the experiment, and deprived of water for 2-3 days to enhance the desire of taking water. As the feed, about 10 pieces of insect feed were placed into the beaker. A 1-ml syringe was used for smell and reward associative conditioning upon learning/training. The syringe contained water as the reward while a piece of paper (3 mm×3 mm) perfumed with peppermint essence was pierced into the needle to about 1 cm from the tip thereof. In this learning/training, the filter paper on the needle was brought near the antennae of the cricket to allow it to smell for 3 seconds and then a drop of water was put out from the tip of the needle and applied to the mouth of the cricket. When the associative conditioning was conducted for four times, the conditionings were conducted at intervals of 5 minutes. Smell preference was examined by placing each cricket into a test arena. The arena consisted of a “standby chamber” and a “test chamber”. […] The smell source was a plastic pot containing filter paper perfumed with essence of a smell (peppermint or vanilla) and covered with a gauze lid. In the preference test, each cricket was placed into the test chamber and allowed to walk freely for 4 minutes to search for the two smell sources. Two minutes after the start of the test, a rotary board having the smell sources was rotated to reverse the positions of the vanilla and the peppermint smells. During the test, the time the cricket spent placing its mouth to the gauze of the smell source was measured as a visiting time to the smell source, and the ratio of the visiting times of the two types of smells (PI value: preference index) was calculated according to the following formula to assess the relative preference to the mint smell. PI value=Tp/(Tp+Tv)×100 • Tp: Searching time for smell associated with the reward (peppermint) • Tv: Searching time for smell not associated with the reward (vanilla) If the preferences for the two smells are equivalent, PI will be 50. Since crickets inherently prefer vanilla smell over peppermint smell, an average PI value prior to the learning/training is usually 25-35, The preference test was conducted before and after the learning/training to examine whether preference for the smell changes due to the learning/training. […] Melatonin, 6-HM, kynurenine, kynuramine and 8br-cGMP were purchased from SIGMA Aldrich, AFMK was purchased from Cayman Chemical, AMK was purchased from Toronto Research Chemicals and CHX was purchased from Wako Pure Chemical Industries. The drugs other than 8br-cGMP and CHX were first dissolved in ethanol and then diluted with physiological saline for crickets to the respective concentrations. In the administration experiment, 3 μl was administered using a 10-μl syringe to the brain via an aperture opened through a simple eye of the head. PI values were tested before the training and a day after the training in the same group by a Wilcoxon's-test.

[3] = tested on: young mice; assay: Object recognition test for young mice (melatonin and melatonin metabolites); type: in vivo, ICR mice; settings: i.p. 60 minutes after one one-minute acquisition trial, test trial 24 hours later
Protocol: Two-month-old male ICR mice (young mice) were used. The rearing room was kept at 22° C. at cycles of 12 hours of light period/12 hours of dark period, and feed and drinking water were given freely. All of the experiments were conducted during the latter 6 hours of the light period.
Melatonin (MEL), N(1)-acetyl-N(2)-formyl-5-methoxykynuramine (AFMK), and N(1)-acetyl-5-methoxykynuramine (AMK) were used as drugs. Melatonin was purchased from SIGMA Aldrich, AFMK was purchased from Cayman Chemical, and AMK was purchased from Toronto Research Chemicals. AFMK and AMK were diluted with physiological saline and intraperitoneally administered at a dosage of 0.01 mg/kg bw, 0.1 mg/kg bw or 1.0 mg/kg bw. MEL was diluted with physiological saline containing 1 vol % ethanol, and intraperitoneally administered at a dosage of 1.0 mg/kg bw or 5.0 mg/kg bw. As controls, physiological saline or physiological saline containing 1 vol % ethanol was intraperitoneally administered.
Test was conducted in the same manner as “5.3 Object recognition test” in Example 5.
Processing was conducted in the same manner as “5.4 Statistical processing” in Example 5.

[4] = tested on: young mice; assay: Object recognition test (ORT) with young mice; type: in vivo, ICR mice
Protocol: as §1, §2
For an object recognition test, two each of two types of objects (height 6 cm×diameter 4 cm, height 7 cm×diameter 7 cm) and an observation box (height 30 cm×width 40 cm×depth 30 cm) were used. This test consisted of an acquisition trial and a test trial, and the experimental individuals were allowed to explore in the observation box 5 minutes a day for 3 days immediately before the experiment in order to adapt the experimental individuals to the observation box. In the acquisition trial, two identical objects were presented to the observation box and the experimental individuals were allowed to search for a minute. When the acquisition trials were conducted for more than one time, the acquisition trials were conducted at one-hour intervals. The test trial was conducted 24 hours, or 4 or 7 days after the last acquisition trial. In the test trials, one of the two identical objects presented in the acquisition trials was exchanged with a different object (new object), and the experimental individuals were allowed to search for 5 minutes. During the test trials, the time that took each of the mice to search for the object was measured, and the ratio of the searching time of the two objects (DI value:discrimination index) was calculated according to the following formula to examine the relative cognitive levels to the new object. DI value (%)=Tn×100/(Tf+Tn)
The object recognition test was a method of evaluating the learning/memory function that utilizes mice's novelty-seeking behavior.
One-sample t-test was employed to compare the DI value with the expected value (50%). In each experiment, when comparison among individual groups was required, an unpaired t-test was employed for comparing two groups while multiple comparisons including one-way analysis of variance followed by Bonferroni test was conducted for comparing three or more groups.

COc1ccc(N)c(C(=O)CCNC(C)=O)c1 [Compound 1, N-[3-(2-amino-5-methoxyphenyl)-3-oxopropyl]-acetamide]
crossing of the blood-brain barrier [1]: cross the blood-brain barrier | time to reach and act in the brain following intraperitoneal administration [1]: about 5 minutes | AMK concentration in hippocampus and perirhinal cortex as compared to the control group ([1]; within 5 minutes, thereafter decreased with time): significantly increased | improvement in an age-related memory disorder ([2]; 20 minutes after training for four times): improvement in an age-related memory disorder was observed | long-term memory formation a day after the training (improvement of age-related memory disorder) ([2]; 20 minutes before training for four times): a long-term memory was formed | concentration at which the effect of inducing long-term memories was found [3]: 0.1 mg/kg bw | long-term memory formation (DI value, test trial 24 hours later) ([4]; 0.001 mg/kg bw i.p. 15 minutes after single-time acquisition trial): a long-term memory was not formed | long-term memory formation (DI value, test trial 24 hours later) ([4]; 0.01 mg/kg bw i.p. 15 minutes after single-time acquisition trial): long-term memories were formed | long-term memory formation (DI value, test trial 24 hours later) ([4]; 0.1 mg/kg bw i.p. 15 minutes after single-time acquisition trial): long-term memories were formed | long-term memory formation (DI value, test trial 24 hours later) ([4]; 1 mg/kg bw i.p. 15 minutes after single-time acquisition trial): long-term memories were formed | duration of induced long-term memory ([4]; 1 mg/kg bw i.p. 15 minutes after single-time acquisition trial, test trials 1, 4 and 7 days later): at least 7 days | long-term memory formation (DI value, test trial 24 hours later) ([4]; 1 mg/kg bw i.p., administered from 60 minutes prior to 120 minutes following single-time acquisition trial): a long-term memory was formed | time of administration after the acquisition trial at which long-term memory was still induced ([4]; 1 mg/kg bw i.p., single-time acquisition trial): at least 120 minutes | administration amount sufficient to form a long-term memory in terms of human (60 kg) ([4]; converted from 0.01 mg/kg bw in mice): about 0.6 mg | administration concentration sufficient to form a long-term memory ([4]; i.p. 15 minutes after single-time acquisition trial): 0.01 mg/kg bw
